In US9957265B2, “N-(2-cyano heterocyclyl) pyrazolo pyridones as janus kinase inhibitors” (Merck Sharp & Dohme Corp., priority 2013, dated 2018):

What was measured:
JAK2 = JAK2 (Homo sapiens (Human), UniProt O60674); assay: Jak Biochemical HTRF Assay (JAK2); details: read-out: JAK2 IC50, recombinant GST-tagged catalytic domain, [ATP] 8.5 μM, unit not given (compound concentrations tested given in nM)
JAK1 = JAK1 (Homo sapiens (Human), UniProt P23458); assay: Jak Biochemical HTRF Assay (JAK1); details: recombinant GST-tagged catalytic domain, [ATP] 31.8 μM, unit not given (compound concentrations tested given in nM)
Chain of JAK1 (P23458 875-1153): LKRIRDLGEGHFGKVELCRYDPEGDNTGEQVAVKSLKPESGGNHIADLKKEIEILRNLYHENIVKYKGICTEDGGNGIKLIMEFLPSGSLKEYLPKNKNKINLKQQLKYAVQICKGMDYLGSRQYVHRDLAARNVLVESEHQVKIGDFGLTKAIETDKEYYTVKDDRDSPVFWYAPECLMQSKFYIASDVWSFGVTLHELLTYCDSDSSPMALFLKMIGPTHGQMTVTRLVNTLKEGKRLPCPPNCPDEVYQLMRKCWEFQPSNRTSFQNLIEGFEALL
From the text: Jak Biochemical HTRF Assay Protocol
Subsequent reagent additions employed an Agilent Bravo.

Chain of JAK2 (O60674 849-1124): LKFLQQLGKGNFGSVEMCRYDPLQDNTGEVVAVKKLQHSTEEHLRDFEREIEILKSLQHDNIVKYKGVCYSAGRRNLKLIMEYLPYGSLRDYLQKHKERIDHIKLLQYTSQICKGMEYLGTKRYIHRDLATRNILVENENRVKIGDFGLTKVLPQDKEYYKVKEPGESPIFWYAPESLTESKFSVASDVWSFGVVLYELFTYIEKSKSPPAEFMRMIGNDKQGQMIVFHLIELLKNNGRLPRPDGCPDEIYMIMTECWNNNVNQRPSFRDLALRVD

With `Cc1nc2ccc(Nc3nn([C@@H]4COCC[C@@H]4C#N)c4cc[nH]c(=O)c34)cc2s1` [Example 2-1, (3S,4S)-3-{3-[(2-methyl-1,3-benzothiazol-6-yl)amino]-4-oxo-4,5-dihydro-1H-pyrazolo[4,3-c]pyridin-1-yl}tetrahydro-2H-pyran-4-carbonitrile] as the compound, how does the IC50 (JAK2) read?
The IC50 was 0.89 nM.

And the IC50 (JAK1)?
The IC50 was 0.03 nM.

What does the source list for `CC1(C)C(=O)Nc2cc(Nc3nn([C@H]4COCC[C@@H]4C#N)c4cc[nH]c(=O)c34)ccc21` [Example 2-2, (3R,4S)-3-{3-[(3,3-dimethyl-2-oxo-2,3-dihydro-1H-indol-6-yl)amino]-4-oxo-4,5-dihydro-1H-pyrazolo [4,3-c]pyridin-1-yl}tetrahydro-2H-pyran-4-carbonitrile]?
IC50 (JAK2): 0.16 nM; IC50 (JAK1): 0.05 nM

For `CS(=O)(=O)c1cc(Nc2nn(C3COCC[C@@H]3C#N)c3cc[nH]c(=O)c23)ccc1Cl` (stereo partly drawn) [Example 3-1, (3R,4S)-3-(3-((4-chloro-3-(methylsulfonyl)phenyl)amino)-4-oxo-4,5-dihydro-1H-pyrazolo[4,3-t]pyridin-1-yl)tetrahydro-2H-pyran-4-carbonitrile], which IC50 (JAK2) is on record?
Its IC50 is 7.44 nM.

What about the IC50 (JAK1) of the same compound?
The IC50 was 1.64 nM.
